Results from PubChem BioAssay (NCI).
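Each compound was tested at five concentrations against cells in 96-well plates for 48 hours. Definition used: TGI = concentration required for complete inhibition of growth.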

What was measured:
Experiment in all cases: inhibition of tumour cell growth, NCI panel, 48 h
[1] = system: MALME-3M melanoma
[2] = system: MOLT-4 leukemia
[3] = system: SF-539 CNS
[4] = system: SF-268 CNS
[5] = system: KM12 colon
[6] = system: NCI/ADR-RES ovarian
[7] = system: NCI-H460 lung
[8] = system: HS 578T breast
[9] = system: IGROV1 ovarian
[10] = system: T-47D breast
[11] = system: HCT-15 colon
[12] = system: OVCAR-8 ovarian
[13] = system: EKVX NSCLC
[14] = system: SK-MEL-28 melanoma
[15] = system: SK-MEL-2 melanoma
[16] = system: UACC-257 melanoma
[17] = system: MDA-MB-231 breast
[18] = system: K-562 leukemia
[19] = system: HCT-116 colon
[20] = system: OVCAR-5 ovarian
[21] = system: HT29 colon
[22] = system: A498 renal
[23] = system: M14 melanoma
[24] = system: ACHN renal
[25] = system: MCF7 breast
[26] = system: U251 CNS
[27] = system: MDA-N
[28] = system: NCI-H522 lung
[29] = system: CCRF-CEM leukemia
[30] = system: HOP-62 NSCLC
[31] = system: SK-OV-3 ovarian
[32] = system: SNB-19 CNS
[33] = system: LOX IMVI melanoma
[34] = system: OVCAR-3 ovarian
[35] = system: SK-MEL-5 melanoma
[36] = system: A549 NSCLC
[37] = system: SNB-75 CNS
[38] = system: COLO 205 colon
[39] = system: HL-60(TB) leukemia
[40] = system: NCI-H23 lung
[41] = system: SN12C renal
[42] = system: SR leukemia
[43] = system: TK-10 renal
[44] = system: RPMI-8226 leukemia
[45] = system: MDA-MB-435
[46] = system: UO-31 renal
[47] = system: UACC-62 melanoma
[48] = system: DU-145 prostate
[49] = system: HOP-92 NSCLC
[50] = system: HCC-2998 colon
[51] = system: CAKI-1 renal
[52] = system: 786-0 renal
[53] = system: SF-295 CNS
[54] = system: SW-620 colon
[55] = system: PC-3 prostate

Measured: TGI

CCC1C(=O)C(O)[C@H]2[C@@H]3C(O)CC4=CC(=O)CC[C@]4(C)[C@H]3CC[C@]12C (stereo not given in full)
> 50 µM: all assays above
